Laboratory results reported in US20180085371A1, “COMBINATION OF PANOBINOSTAT AND RUXOLITINIB IN THE TREATMENT OF CANCER SUCH AS A MYELOPROLIFERATIVE NEOPLASM” (Novartis AG, priority 2011, published 2018).
Where “and” joins values, the source holds several entries; their conditions need not be identical. Equal entries are not always repeated. Where two headings read alike, the source gives them in different places.

Experiments:
[1] = test system: JAK2V617F bone marrow transduced cells; experiment: JAK2V617F bone marrow transplant model of polycythemia vera-like disease (spleen weight, blood counts, GFP-positive cells)
Method: Briefly, Balb/c donor mice (6-8 weeks, Charles River, males or females) were treated 5 days prior BM transplant with 5-fluorouracil (150 mg/kg, i.p., Sigma-Aldrich, cat #F6627). Bone marrow cells from donor mice were harvested by flushing femurs and tibias. After red cell lysis (StemCellTechnologies, Grenoble, France, cat #07800), nucleated cells were cultured for 24 hours in transplant medium (RPMI+10% FCS+25 ng/ml IL3 (R&D Systems, Abington, UK, cat #403-ML), 25 ng/ml IL6 (R&D Systems cat #406-ML), and 50 ng/ml Stem Cell Factor (SC F, Bioconcept, Allschwill, Switzerland, cat #D-63120). The next day, cells were plated at 2×10^6cells/ml/well in 6 well plates in the presence of 1 mL of supernatant containing virions from 293T transfected with 10 μg of p-MSCV-JAK2V617F-IRES-GFP vector (modification of original vector p-MSCV vector purchased from Clontech) and 10 μg of pCL-ECO vector (Imgenex, cat #10045P). After two spin-infections (2500 rpm for 90 min at 32° C., Multifuge 1S-R, Heraeus) unselected infected BM cells were resuspended in Hank's balanced salt solution (HBSS) before cell injection (1-3×10^6 depending on infection rate) into the tail vein of lethally irradiated Balb/c female recipient mice (total 9 Gy or 7 Gy) given as two 4.5 or 3.5 Gy doses 4 hours apart) using a BIOBEAM 8000, gamma irradiator (BEBIG GmbH, Germany).
(§2) Animals were monitored daily and sacrificed in case of major signs of distress (excessive body weight loss over more than 2 consecutive days without improvement, combined with lethargy and piloerection).
Blood was drawn from the tail vein or at sacrifice from the vena cava with a 20 G needle under isoflurane anesthesia (terminal procedure) and analyzed using an automated complete and differential blood cell counter (capillary mode using dilution 1:5 on a Sysmex blood analyzer, XT2000iV, Sysmex Digitana AG, Norderstedt, Germany). Spleens were weighed to evaluate splenomegaly. Blood, spleens, sterna, and livers were collected for pharmacokinetic, pharmacodynamic.
Ten microliters of whole blood were used to detect circulating GFP-positive cells. Briefly, blood was distributed into a 96-well round bottom plate (Costar, cat #3795) and red blood cells (RBC) were lysed with 200 μl of red blood cell lysis buffer (Sigma, cat #R-7757). After an incubation period of 7 min. in the dark on a plate agitator, cells were centrifuged (5 min., 300 g) and the supernatant discarded by inversion of the plate. After 3 washing steps in FACS buffer (phosphate buffered saline (D-PBS), 3% FBS and 0.02% sodium azide), nucleated cells were resuspended in 200 μl of cold FACS buffer and processed for GFP detection using a LSRII flow cytometer (BD Biosciences, Heidelberg, Germany).
(§3) Mice were randomized on day 27 post BMT based on Hct values (67% in average in this experiment, N=9/group) and treated with Compound B (8 mg/kg, 3×/week MWF, i.p.) and Compound A (60 mg/kg, q12h, p.o.) as single agents or combined.

[2] = Levels post therapy, Example B (UPLC/MS-MS, blood and tissues); assay type: in vivo, mouse; details: mean, N = 9; for concentration at 2 h: Balb/c, mouse, blood, read-out: Blood level 2 hr after final dose
Method: (§1) Concentrations of Compound A and Compound B in plasma and tissues were determined simultaneously by an UPLC/MS-MS assay. Tissues were homogenized in an equal volume of HPLC-Water (Water for chromatography, Merck) using the Fast Prep®-24 system (M.P. Biomedicals, Irvine, Calif., USA). Following addition of 25 μl of internal standard mixture (1 μg/ml) to analytical aliquots (25 μl) of blood or tissues homogenate, the proteins were precipitated by the addition of 200 μl acetonitrile. The supernatant were transferred in a fresh vial. After evaporation to dryness the samples were re-dissolved in 60 μl acetonitrile/water (1/1 v/v). An aliquot (5 μl) of this solution was separated on a ACQUITY UPLC BEH C18 column (Waters™ 1.7 μm particle size, 2.1×50 mm) with a mobile phase consisting of a mixture of 0.1% formic acid in water (solvent A) and 0.1% formic acid in acetonitrile (solvent B). Gradient programming was used with a flow rate of 600 μl/min. After equilibration with 95% solvent A, 5 μl of sample was injected. Following a latency period of 0.25 min., the sample was eluted with a linear gradient of 5-100% solvent B over a period of 0.65 minutes followed by a 0.35 min. hold. The column was prepared for the next sample by re-equilibrating over 0.25 min. to the starting conditions. The column eluent was directly introduced into the ion source of the triple quadrupole mass spectrometer TQDTM (Waters Corporation, Milford, Mass., USA) controlled by Masslynx™ 4.1 software. Electrospray positive ionization (ESI+) multiple reaction monitoring was used for the MS/MS detection of the analyte. Precursor to product ion transition of 307.0→m/z 186.0 for Compound A was used. Simultaneously precursor to product ion transition of 350.1→m/z 142.9 for Compound B was recorded. The limit of quantification (LOQ) for both compounds was set to 9 ng/ml and 9 ng/g for plasma and tissues, respectively (CV and overall bias less than 30%). Regression analysis and further calculations were performed using QuanLynx™ 4.1 (Micromass) and Excel™ 2007 (Microsoft). Concentrations of unknown samples were back-calculated based on the peak area ratios of analyte/IS from a calibration curve constructed using calibration samples spiked in blank blood or tissue obtained from animals treated with vehicle.

[3] = Body weight change in JAK2V617F bone marrow transplant model; details: sacrifice day after 21 days; Compound B 8 mg/kg ip 3 times a week, Compound A 60 mg/kg po q12h, or Combo of both
Method: as §2
Results shown in the figures and tables represent means±SEM. Percentage change in body weights and absolute values or transformed values (log10, or other as specified) for spleen weights, reticulocyte, WBC counts, Hct and histological data were analyzed by unpaired t-test or Rank-Sum test to compare a single treatment group to vehicle group or one way ANOVA followed by Dunnett's test to compare treatment groups to vehicle group. Multiple comparisons were done using the Tukey's test. All comparisons were done on sacrifice day. The significance level was set to p<0.05. Calculations were performed using GraphPad Prism for Windows (GraphPad Software Inc.).
as §3

[4] = PK analysis 2 hours post-therapy, Example A (blood and tissue levels); assay type: in vivo, mouse; details: mean; for BM level 2 hr post-therapy: BM levels to be taken with caution
Method: 2 hours after last dose for Compound A;
2 hours after last dose for Compound B; • Spleen weight is recorded at sacrifice. • Samples collected and snap frozen in liquid nitrogen and then kept at −80° C. until analysis: • spleen, BM, blood and liver for PK analysis • spleen for PD marker analysis (p-STATS (Compound A) and protein acetylation (Compound B)), • sternum for PD marker analysis (p-STATS (Compound A).
as §1

[5] = test system: JAK2V617F bone marrow transduced cells; experiment: Histology of bone marrow and spleen (cellularity, splenic architecture, reticulin fibrosis) in JAK2V617F bone marrow transplant model; assay type: in vivo, mouse; details: 21 days; for Bone marrow hypercellularity / Splenic architecture: Compound B 8 mg/kg, Compound A 60 mg/kg or both; for Bone marrow hypercellularity: rank Combo>Compound A=Compound B; for Splenic architecture: rank Combo>Compound A>Compound B
Description: and spleens were collected, fixed in formalin, trimmed, embedded in paraffin and sectioned at (nominally) 4 μm using a microtome. […] Briefly, the spleen was removed in total, weighed and placed on a dissection tray. The spleen was cut transverse in two halves and two equal pieces were taken from the middle parts using a scalpel. […] Baker, Medite, Switzerland). Fixative volume was at least tenfold in excess compared to tissue volume. […] After a last wash in PBS, the tissues were cut up and set with the surface of interest downwards in a universal histocassette followed by processing in a TPC 15Duo (Tissue Processing Center) for paraffinization. From each tissue paraffin block, several 3 μm thick sections were cut on a sliding or rotary microtome (Mikrom International AG, Switzerland), spread in a 45° C. water-bath, mounted on microscope slides (Polysine, VWR International, Leuven, Belgium), and air-dried in an oven at 37° C. overnight. Dry tissue section slides were taken out of the oven and placed in the slide rack of the linear stainer COT20 (Medite, Switzerland) for fully automated H&E (Haematoxylin &Eosin) staining or processed for immunohistochemistry (IHC) staining. For IHC, tissue section samples were stained with rabbit anti-phospho STAT5 antibody (clone C11C5), and rabbit anti-acetyl Histone H3 antibody (Millipore, MA, USA) coverslipped and air-dried. […] Splenic architecture was evaluated as destroyed (1+) or preserved (0). Presence of myeloid, erythroid and adipocytes cells was evaluated as 0, 1+, 2+, 3+ based on cellularity. […] Whole slide automated quantitative assessment of p-STAT5-positive and -negative cell nuclei were performed using Definiens eCognition software (eCognition version XD 1.5, Definiens AG, Germany). The results were expressed as percent of positive p-STAT5 nuclei out of total nuclei.

[6] = sacrifice day after 21 days, Compound B 8 mg/kg ip, Compound A 60 mg/kg po q12h, or Combo
[7] = Combo Compound A (60 mg/kg) and B (8 mg/kg)
[8] = single agent: Comp'd B 8 mg/kg or Comp'd A 60 mg/kg
[9] = treatment Compound A 60 mg/kg + Compound B 4 mg/kg
[10] = treatment Compound A 60 mg/kg + Compound B 8 mg/kg
[11] = treatment Compound A 60 mg/kg + Compound B 12 mg/kg

concentration at 2 h [2, 7] [nM]	concentration at 2 h [2, 8] [nM]	BM level 2 hr after final dose [2, 7] [nmol/g]	Liver level 2 hr after final dose [2, 7] [nmol/g]	Spleen level 2 hr after final dose [2, 7] [nmol/g]	BM level 2 hr after final dose [2, 8] [nmol/g]	Liver level 2 hr after final dose [2, 8] [nmol/g]	Spleen level 2 hr after final dose [2, 8] [nmol/g]	Blood level 2 hr post-therapy [4, 9] [nM]	Liver level 2 hr post-therapy [4, 9]	Spleen level 2 hr post-therapy [4, 9]	BM level 2 hr post-therapy [4, 9]	Blood level 2 hr post-therapy [4, 10] [nM]	Liver level 2 hr post-therapy [4, 10] [nmol/g]	Spleen level 2 hr post-therapy [4, 10] [nmol/g]	BM level 2 hr post-therapy [4, 10] [nmol/g]	Blood level 2 hr post-therapy [4, 11] [nM]	SMILES	Hct (%) (mean ± SEM) [1, 6]	Retic counts (×10^12/L) (mean ± SEM) [1, 6]	BW change (%) (mean ± SEM) [3]	also measured
4110	8180	1.469	3.568	1.575	2.223	6.537	2.566	2780	3.49 + nmol/g	1.15 + nmol/g	2.59 + nmol/g	2230	2.91	1.02	1.92	2720	N#CC[C@H](C1CCCC1)n1cc(-c2ncnc3[nH]ccc23)cn1 [Compound A, (R)-3-(4-(7H-pyrrolo[2,3-d]pyrimidin-4-yl)-1H-pyrazol-1-yl)-3-cyclopentylpropanenitrile]	59.4	0.42 ×10^12/L	0.45%	PLT (×10^9/L) (mean ± SEM) [1, 6]: 695.9 ×10^9/L; WBC (×10^9/L) (mean ± SEM) ([1]; sacrifice day after 21 days, Compound B 8 mg/kg ip, Compound A 60 mg/kg po q12h, or Combo, all values): 22.2 ×10^9/L; GFP positive circulating cells (%) ([1]; sacrifice day after 21 days, allele burden surrogate, Compound B 8 mg/kg ip, Compound A 60 mg/kg po q12h, or Combo): 34.0%; WBC (×10^9/L), mean without outlier ([1]; sacrifice day, Compound A 60 mg/kg po q12h, value between brackets, 1 outlier excluded): (7.46 ×10^9/L; Liver level 2 hr post-therapy [4, 11]: 3.87 nmol/g; Spleen level 2 hr post-therapy [4, 11]: 1.61 nmol/g; BM level 2 hr post-therapy [4, 11]: 2.29 nmol/g; Blood level 2 hr post-therapy ([4]; treatment Compound A 60 mg/kg): 1960 nM; Liver level 2 hr post-therapy ([4]; treatment Compound A 60 mg/kg): 4.54 nmol/g; Spleen level 2 hr post-therapy ([4]; treatment Compound A 60 mg/kg): 1.28 nmol/g; BM level 2 hr post-therapy ([4]; treatment Compound A 60 mg/kg): 1.40 + nmol/g; Fibrosis score (reticulin staining on sternum sections) ([5]; Compound A 60 mg/kg or combination with Compound B 8 mg/kg, high variability): tendency to reduce; Bone marrow hypercellularity [5]: decrease; Splenic architecture [5]: improved
6	35	4.398	0.33	15.317	2.704	0.264	10.045	20	0.30 + nmol/g	2.80 + nmol/g	6.15 + nmol/g	30	0.32	3.02	8.43	20	Cc1[nH]c2ccccc2c1CCNCc1ccc(/C=C/C(=O)NO)cc1 [Compound B, N-hydroxy-3-[4-[[[2-(2-methyl-1H-indol-3-yl)-ethyl]-amino]methyl]phenyl]-2E-2-propenamide]	52.2	0.24 ×10^12/L	−5% and −4.57%	Liver level 2 hr post-therapy [4, 11]: 0.71 nmol/g; Spleen level 2 hr post-therapy [4, 11]: 4.51 nmol/g; BM level 2 hr post-therapy [4, 11]: 9.81 nmol/g; Blood level 2 hr post-therapy ([4]; treatment Compound B 4 mg/kg): BLQ; Liver level 2 hr post-therapy ([4]; treatment Compound B 4 mg/kg): 0.18 nmol/g; Spleen level 2 hr post-therapy ([4]; treatment Compound B 4 mg/kg): 1.40 nmol/g; BM level 2 hr post-therapy ([4]; treatment Compound B 4 mg/kg): 3.34 nmol/g; Blood level 2 hr post-therapy ([4]; treatment Compound B 8 mg/kg): BLQ; Liver level 2 hr post-therapy ([4]; treatment Compound B 8 mg/kg): 0.25 nmol/g; Spleen level 2 hr post-therapy ([4]; treatment Compound B 8 mg/kg): 2.07 nmol/g; BM level 2 hr post-therapy ([4]; treatment Compound B 8 mg/kg): 3.17 nmol/g; Blood level 2 hr post-therapy ([4]; treatment Compound B 12 mg/kg): BLQ; Liver level 2 hr post-therapy ([4]; treatment Compound B 12 mg/kg): 0.63 nmol/g; Spleen level 2 hr post-therapy ([4]; treatment Compound B 12 mg/kg): 3.64 nmol/g; BM level 2 hr post-therapy ([4]; treatment Compound B 12 mg/kg): 7.32 nmol/g; Bone marrow hypercellularity [5]: decrease; Splenic architecture [5]: improved
